Source: a melting point compilation (Tetko et al.; mined from patent text by program, amines drawn as free bases though some values may be those of a salt)

SMILES	melting point [°C]
O=C1Nc2ccc(-c3cccc(Cl)c3)cc2C2(CCCCC2)O1	165 to 168
CSc1nc(C)cc2nccn12	67 to 69
COc1cc(-c2ccc(C(F)(F)F)cc2)nc(SC)n1	82 to 84
CCCCCC1(C)OCc2c1cnc(C)c2OCC(=O)O (centres undefined)	211
CC1(CCO)c2ccccc2-c2ccccc21	84 to 85
CS(=O)(=O)c1ncnn1C[C@]1(c2ccccc2Cl)O[C@@H]1c1ccc(Cl)cc1Cl (relative stereo)	129 to 133
CS(=O)(=O)c1ccc(-c2cnc(-c3ccc(F)cc3)s2)s1	183 to 184
COC(=O)c1ccc(CCCCc2c(C)cc(C)cc2C)cc1	52 to 53
COC(=O)c1cccc(Nc2nc(N)c(C(=O)c3ccccc3OC)s2)c1	214 to 215
Cc1nccnc1C(=O)Nc1ccc(C(C(F)(F)F)C(F)(F)F)c(CC(C)C)c1	133 to 134
CC(C)[C@H](NC(=O)OC(C)(C)C)C(=O)Nc1c(C(=O)CC(=O)Nc2nccs2)cccc1C(F)(F)F	120
COC1CC(NC(C)=O)C(OC(=O)c2ccccc2)C(CBr)O1 (centres undefined)	173
CC1CNc2c(cccc2S(=O)(=O)N[C@@H](CCCNC(=N)N)C(=O)N2CC[C@@H](C)C[C@@H]2C(=O)O)C1 (some centres undefined)	188 to 191
CC(C)=CCCC(C)=CCCC(C)=Cc1ccc(C(=O)O)cc1	92 to 92.5
CC(C)c1ccc(S(=O)(=O)Nc2ccc(Cl)cc2I)cc1	149
Cc1ccc(-c2c(NS(=O)(=O)c3ccc(C(C)(C)COc4ncc(Br)cn4)cc3)ncnc2OCCOc2ncc(Br)cn2)cc1	156 to 158
O=c1cc(COC2CCCCO2)occ1OCCCCBr (centres undefined)	71.5
COC1(c2cc(F)cc(Sc3ccc4c(c3)n(C)c(=O)n4C)c2)CCOCC1	128 to 130
Fc1ccc(C(=Cc2ccccc2Cl)CBr)cc1	68
COc1ccc(Nc2cc(-c3ccccc3)nc(N3CCC(O)CC3)n2)cc1Cl	188 to 191
CSc1nccc(-c2c[nH]c(=O)n2-c2ccc(F)cc2)n1	260 to 261
O=C(OC[C@@H](O)[C@@H]1CC(c2ccc(-c3ccc(N4C[C@H](Cn5ccnn5)OC4=O)cc3F)cn2)=NO1)c1cccnc1	210
COCc1ncc(Nc2ccc(Cl)cc2)nc1-n1nc(C)cc1C	147 to 151
Cc1cc(-c2cc(CO)c(=O)n(CC(C)C)n2)ccc1F	107 to 110
CC(C)(C)C(=O)CNC(=O)c1nn(-c2ccc(F)cc2F)c2c1C1CCC2C1 (centres undefined)	42 to 43

SMILES	melting point [°C]
CC(C)(C)OC(=O)N1C[C@@H]2CC1CN2c1cncc(Br)c1	149
CCC(O)(c1ccc(-c2ccccc2)cc1)C1CC=CC1 (centres undefined)	82 to 84
CCOC(=O)c1cn2c3c(cccc3c1=O)CC2(C)C	117 to 119
N#CCc1c(Cl)nc(-c2ccc([N+](=O)[O-])cc2)n1Cc1ccccc1	125 to 128
CC1=CC(OC(=O)c2ccc(N(C)C)cc2)C(O)C(C)(C)CC1=O (centres undefined)	162 to 163
CC(=O)NCc1ccc(CC[N+]2([O-])CCC(C3CCc4ccccc43)CC2)cc1 (centres undefined)	130 to 131
N#CNC1NN=C(c2ccc3ccccc3c2)O1 (centres undefined)	> 250
O=C1C2CC3CC2C(C(=O)O)(C3)N1Cc1ccccc1 (centres undefined)	191 to 194
CCn1c(C)nc2cc([N+](=O)[O-])c(Sc3cccc4cnccc34)cc21	226 to 229
Cn1ncc(C(=O)N[C@H]2CCOC2)c1C(=O)Nc1ccn2nc(-c3ccccc3)nc2c1	> 250
CC(=O)N(C)c1c(I)c(NC(=O)CCCC(=O)O)c(I)c(C(=O)O)c1I	189 to 196
CC(C)(C)NS(=O)(=O)c1cc2c(s1)S(=O)(=O)NCC2O (centres undefined)	144 to 147
Cc1cc(-n2ccnc2)c2cccc(OCc3c(Cl)ccc(S(=O)(=O)N4CCC[C@H]4C(=O)NCC4CCN(C(=O)c5cccnc5)CC4)c3Cl)c2n1	109
Nc1c(Br)cc(Oc2cc(Br)c(N)c(Br)c2)cc1Br	166 to 167
CC1CC(n2ccc(-c3ccc(F)cc3)c2-c2ccncc2)CCN1 (centres undefined)	173 to 175
COc1cn(-c2ccc(N3CCCC(F)(F)C3)cc2F)nc(-c2ccnn2-c2ccccc2)c1=O	182 to 187
O=C(N1CCOc2ccccc21)C(F)(F)F	58 to 60
COc1cc(CNC(=O)c2ccc(Cl)cc2OCC(=O)O)cc(OC)c1	163
Clc1nc(-c2cccnc2)sc1NC1CC1	56 to 60
Cc1nc(S(=O)(=O)N(C(=O)c2ccccc2)c2c(F)cccc2F)nn1-c1ncccn1	218 to 221
O=c1nc(-c2ccccc2)c2cc([N+](=O)[O-])ccc2n1CC1CC2CCC1C2 (centres undefined)	160
Cc1nn2c(c1C(N)=O)NCCC2	234 to 236
COCc1cc([N+](=O)[O-])c(Cl)cc1C#N	57 to 59
N#CN1CCC(c2nn(-c3ccc(F)cc3)c3ccccc23)CC1	108 to 110
CC(C)NC(=O)c1c(NC(=O)c2cc(C(F)(F)F)nn2-c2ncccc2Cl)c(Cl)cc2cn[nH]c12	245 to 247

SMILES	melting point [°C]
COc1cc(Oc2cccc(C(F)(F)F)c2)nc(C(=O)Nc2ccccc2)c1	131 to 133
CC(=O)N(N=Cc1c(Cl)cccc1Cl)c1nncn1N(C)C(C)=O	167 to 169
Nc1nc(Cl)cc(CF)n1	159
COc1cc(Cc2ccc(N)c(C#N)c2)cc(OC)c1	105 to 107
CC(C)N1CC(COc2ccc([N+](=O)[O-])c(C=O)c2)OC1=O (centres undefined)	94 to 97
CCc1nc2c(N)nc3ccccc3c2n1CCOCCNC(=O)NC1CCCCC1	198 to 200
N#CCCN(CCC#N)CC(=O)O	73
COC(=O)c1cc([N+](=O)[O-])c(Oc2cc(C)cc(C)c2)c(S(N)(=O)=O)c1	197 to 198
CCOC(=O)CCc1cc(C(=O)c2ccc(C(=O)OCC)cc2)ccc1O	70 to 71
CC(C)C(=CC(CNC(=O)c1cccnc1)=NO)C(C)[N+](=O)[O-] (centres undefined)	132 to 135
CC(O)CN(C)Cc1cc2c(=O)c(C(=O)NCc3ccc(Cl)cc3)cn(C)c2o1 (centres undefined)	152
COC(=O)c1sccc1S(=O)(=O)NC(=O)Nc1nc(C)cc(OC(F)F)n1	178 to 179
N#CSc1cc(N)c(N)cc1Cl	108 to 110
CC[C@H](C)[C@H](NC(=O)O[C@@H](CC(C)C)C(=O)O)C(=O)NC1CCCCC1	193 to 195
Cc1c(S(C)=O)c(C=NO)nn1-c1c(Cl)cc(C(F)(F)F)cc1Cl (centres undefined)	210 to 214
CC1NC(=S)NN=C1c1ccccc1 (centres undefined)	213 to 214
CCOC(=O)Nc1nc(-c2ccccc2)c(-c2nc3ccccc3c(=O)n2-c2ccccc2)s1	245 to 247
CCCc1cn2ccccc2c1C(=O)c1ccc(O)cc1	210 to 214
CNC(=O)[C@@H]1C[C@H](OS(=O)(=O)c2ccc(C)cc2)CN1S(=O)(=O)c1ccc(C)cc1	147 to 149
CCn1nc(-c2cccc(F)c2)c(C(C)=O)c(Nc2cccc3ncccc23)c1=O	205 to 207
CN(C)CNS(=O)(=O)c1ccc(-c2cnn(Cc3ccc(F)cc3F)c(=O)c2-c2ccc(F)cc2)cc1	193 to 195
Cc1c(C(=O)O)ccc2c1OC(c1ccccc1)(c1ccccc1)O2	263 to 265
O=C(O)Cc1ccc(NC(=O)C(CCc2ccccc2)NS(=O)(=O)c2ccc(Br)cc2)cc1 (racemic)	155 to 160
O=c1c2c[nH]c3ccncc3c-2nn1-c1ccccc1	334 to 337
CCCCCCCCC(=O)Nc1cc([N+](=O)[O-])cc([N+](=O)[O-])c1	72.5 to 73

SMILES	melting point [°C]
COc1nc(C(F)(F)C(F)(F)F)cc(=O)n1-c1cc(O)c(Cl)cc1F	143 to 145
NC(=O)NCc1ccc(Nc2n[nH]c3ncnc(Nc4cccc(Cl)c4)c23)cc1	> 280
O=C(CCN1CCN(Cc2ccccc2)CC1)c1ccc2oc3ccccc3c2c1	135 to 136
Cc1nc2c(C)nn(C)c2c(=O)[nH]1	258 to 260
O=C(O)CCCCCCCCCCOc1ccccc1OCc1ccccc1	62 to 63
CC(=O)CCN1CCC(Nc2nc3ccccc3n2Cc2ccc(F)cc2)CC1	131
CCCCC/C(=C/C=C/C(=O)Oc1ccc([N+](=O)[O-])cc1)c1cccc(F)c1	50 to 51
COC(=O)C1=C(C(OC)OC)NC(C)=C(c2nc(CCl)no2)C1c1cccc([N+](=O)[O-])c1 (centres undefined)	141 to 142
Cc1nn(-c2cncnc2)cc1N	211 to 215
COc1ccc(C(C)(C)C)cc1C(=O)NCCc1ccc(OC)c(S(N)(=O)=O)c1	165 to 168
CC(C)C(C)(C(N)=O)N1C(=O)c2ccc3ccsc3c2C1=O (centres undefined)	199 to 200
CCCCCCCCc1ccc2nc(-c3ccc(COC(CCCCCC)C(F)(F)F)cc3)sc2c1 (centres undefined)	37.2
CNc1nc2ccncc2[nH]1	256
CCn1c(=O)c2c(nc(/C=C/c3ccc(OCCCCN)cc3)n2C)n(CC)c1=O	212 to 214
CC(=O)OCc1ccc(-c2[nH]c(-c3cccc4ccccc34)nc2C(=O)OC(C)(C)C)cc1	162 to 164
CC(C(=O)O)c1ccc2oc(-c3ccc(Cl)cc3)nc2c1 (centres undefined)	190
O=C(O)CCCN(Cc1cccc(Cl)c1)Cc1cccc(Cl)c1	170 to 173
COC(=O)C(=C(C)O)N1C(=O)C(N2C(=O)c3ccccc3C2=O)C1SC(C)=O (centres undefined)	178 to 183
O=C(O)CCCC=Cc1nn(-c2ccc(Cl)cc2)c2c1CCC2	132 to 134
O=C1CCCc2sc(-c3ccncc3)cc21	156 to 158
CCCc1c(OCCCCCOc2ccccc2CCC(=O)O)ccc2c1OCCC2=O	75 to 76
OCCNC(=S)Nc1cccc2ccoc12	138 to 139
COC[C@H]1CN(c2ccc3oc(-c4ccccc4)cc3c2)C(=O)O1	178 to 179
COc1ccc(C(=O)Cc2ccc3ccccc3c2)cc1	132 to 134
